In ChEMBL document CHEMBL1201862, “PubChem BioAssay data set” (2004):
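48-hour exposure; five concentrations; linearly interpolated endpoints. Abbreviation: GI50, concentration required for 50% inhibition of growth.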 The source made the active and inactive calls. Cut-off read from the data, not from the text of the source: active = GI50 up to about 1.1 µM and inactive = higher.

Columns and labels:
Assay in all cases: growth of human tumour cells (NCI), 48 h
A498 = system: A498
HCC 2998 = system: HCC 2998
SK-OV-3 = system: SK-OV-3
DMS-273 = system: DMS-273
SW-620 = system: SW-620
M14 = system: M14
NCI-H460 = system: NCI-H460
HCT-116 = system: HCT-116
SF-539 = system: SF-539
U-251 = system: U-251
KM12 = system: KM12
CCRF-CEM = system: CCRF-CEM
RPMI-8226 = system: RPMI-8226
SK-MEL-2 = system: SK-MEL-2
SF-268 = system: SF-268
SNB-78 = system: SNB-78
COLO 205 = system: COLO 205
SNB-75 = system: SNB-75
UACC-62 = system: UACC-62
LXFL 529 = system: LXFL 529
HL-60 = system: HL-60
HCT-15 = system: HCT-15
OVCAR-3 = system: OVCAR-3
A549 = system: A549
786-0 = system: 786-0
OVCAR-5 = system: OVCAR-5
OVCAR-8 = system: OVCAR-8
RXF 393 = system: RXF 393
MOLT-4 = system: MOLT-4
NCI-H226 = system: NCI-H226
EKVX = system: EKVX
NCI-H522 = system: NCI-H522
SF-295 = system: SF-295
HOP-92 = system: HOP-92
RXF 631 = system: RXF 631
TK-10 = system: TK-10
KM-20L2 = system: KM-20L2
HT-29 = system: HT-29
SN12C = system: SN12C
SK-MEL-5 = system: SK-MEL-5
UACC-257 = system: UACC-257
DLD-1 = system: DLD-1
M19-MEL = system: M19-MEL
XF498 = system: XF498
ACHN = system: ACHN
IGROV-1 = system: IGROV-1
K562 = system: K562
CAKI-1 = system: CAKI-1
LOX IMVI = system: LOX IMVI
DMS-114 = system: DMS-114
UO-31 = system: UO-31
NCI-H23 = system: NCI-H23
HOP-62 = system: HOP-62
SK-MEL-28 = system: SK-MEL-28
OVCAR-4 = system: OVCAR-4
HOP-18 = system: HOP-18
Malme-3M = system: Malme-3M
SNB-19 = system: SNB-19
SR = system: SR

## Cc1cc(C)nc(NS(=O)(=O)c2ccc(NC(=O)c3cccc4c(Nc5ccc(S(N)(=O)=O)cc5)c5ccccc5nc34)cc2)n1
A498
  GI50: > 94.2 µM (inactive)
HCC 2998
  GI50: 14.8 µM (inactive)
SK-OV-3
  GI50: 15.2 µM (inactive)
DMS-273
  GI50: 34.8 µM (inactive)
SW-620
  GI50: 20.6 µM (inactive)
M14
  GI50: > 82.6 µM (inactive)
NCI-H460
  GI50: 44.1 µM (inactive)
HCT-116
  GI50: 7.64 µM (inactive)
SF-539
  GI50: 3.67 µM (inactive)
U-251
  GI50: 8.89 µM (inactive)
KM12
  GI50: 15.4 µM (inactive)
CCRF-CEM
  GI50: 6.82 µM (inactive)
RPMI-8226
  GI50: 12.8 µM (inactive)
SK-MEL-2
  GI50: 10.2 µM (inactive)
SF-268
  GI50: 6.59 µM (inactive)
SNB-78
  GI50: 9.79 µM (inactive)
COLO 205
  GI50: 26.6 µM (inactive)
SNB-75
  GI50: 5.46 µM (inactive)
UACC-62
  GI50: 2.88 µM (inactive)
LXFL 529
  GI50: 3.92 µM (inactive)
HL-60
  GI50: 7.4 µM (inactive)
HCT-15
  GI50: > 100 µM
OVCAR-3
  GI50: 9.42 µM (inactive)
A549
  GI50: > 100 µM (inactive)
786-0
  GI50: 50.8 µM (inactive)
OVCAR-5
  GI50: > 100 µM (inactive)
OVCAR-8
  GI50: 30.3 µM (inactive)
RXF 393
  GI50: 11.2 µM (inactive)
MOLT-4
  GI50: 6.71 µM (inactive)
NCI-H226
  GI50: > 100 µM (inactive)
EKVX
  GI50: > 100 µM (inactive)
NCI-H522
  GI50: 13 µM (inactive)
SF-295
  GI50: > 66.5 µM (inactive)
HOP-92
  GI50: 20.7 µM (inactive)
RXF 631
  GI50: > 100 µM (inactive)
TK-10
  GI50: > 74.6 µM (inactive)
KM-20L2
  GI50: > 75.5 µM (inactive)
HT-29
  GI50: 34.9 µM (inactive)
SN12C
  GI50: 16.1 µM (inactive)
SK-MEL-5
  GI50: 19.1 µM (inactive)
UACC-257
  GI50: 28.1 µM (inactive)
DLD-1
  GI50: > 93.3 µM (inactive)
M19-MEL
  GI50: 13.5 µM (inactive)
XF498
  GI50: 39.2 µM (inactive)
ACHN
  GI50: > 100 µM (inactive)
IGROV-1
  GI50: 4.24 µM (inactive)
K562
  GI50: 7.85 µM (inactive)
CAKI-1
  GI50: > 100 µM (inactive)
LOX IMVI
  GI50: 19.4 µM (inactive)
DMS-114
  GI50: 17.5 µM (inactive)
UO-31
  GI50: > 100 µM (inactive)
NCI-H23
  GI50: 37.1 µM (inactive)
HOP-62
  GI50: 26.7 µM (inactive)
SK-MEL-28
  GI50: 3.09 µM (inactive)
OVCAR-4
  GI50: 35.1 µM (inactive)
HOP-18
  GI50: > 56 µM (inactive)
Malme-3M
  GI50: 18.2 µM (inactive)
SNB-19
  GI50: 4.02 µM (inactive)

## CCOC(=O)/C=C/n1c2ccccc2c(=O)c2cc(OC)ccc21
A498
  GI50: > 100 µM (inactive)
HCC 2998
  GI50: > 100 µM (inactive)
SK-OV-3
  GI50: > 100 µM (inactive)
DMS-273
  GI50: 49 µM (inactive)
M14
  GI50: > 100 µM (inactive)
NCI-H460
  GI50: > 100 µM (inactive)
HCT-116
  GI50: 90.6 µM (inactive)
SF-539
  GI50: > 100 µM (inactive)
U-251
  GI50: 71.8 µM (inactive)
KM12
  GI50: > 100 µM (inactive)
CCRF-CEM
  GI50: 50.8 µM (inactive)
SK-MEL-2
  GI50: > 100 µM (inactive)
SF-268
  GI50: > 100 µM (inactive)
COLO 205
  GI50: > 100 µM (inactive)
SNB-75
  GI50: 51.5 µM (inactive)
UACC-62
  GI50: > 100 µM (inactive)
LXFL 529
  GI50: > 100 µM (inactive)
HL-60
  GI50: > 100 µM (inactive)
HCT-15
  GI50: 39.9 µM
OVCAR-3
  GI50: > 100 µM (inactive)
A549
  GI50: > 100 µM (inactive)
786-0
  GI50: > 100 µM (inactive)
OVCAR-5
  GI50: > 100 µM (inactive)
OVCAR-8
  GI50: > 100 µM (inactive)
RXF 393
  GI50: > 100 µM (inactive)
MOLT-4
  GI50: > 100 µM (inactive)
NCI-H226
  GI50: > 100 µM (inactive)
EKVX
  GI50: > 100 µM (inactive)
NCI-H522
  GI50: 54.2 µM (inactive)
SF-295
  GI50: > 100 µM (inactive)
HOP-92
  GI50: 57.9 µM (inactive)
RXF 631
  GI50: 87.5 µM (inactive)
TK-10
  GI50: 74.5 µM (inactive)
KM-20L2
  GI50: > 100 µM (inactive)
HT-29
  GI50: 38.5 µM (inactive)
SN12C
  GI50: > 100 µM (inactive)
SK-MEL-5
  GI50: > 100 µM (inactive)
UACC-257
  GI50: > 100 µM (inactive)
DLD-1
  GI50: 69.7 µM (inactive)
M19-MEL
  GI50: > 100 µM (inactive)
XF498
  GI50: 48.5 µM (inactive)
ACHN
  GI50: > 100 µM (inactive)
IGROV-1
  GI50: > 100 µM (inactive)
K562
  GI50: > 100 µM (inactive)
CAKI-1
  GI50: > 100 µM (inactive)
LOX IMVI
  GI50: 20.7 µM (inactive)
DMS-114
  GI50: 65.2 µM (inactive)
UO-31
  GI50: > 100 µM (inactive)
NCI-H23
  GI50: 57.1 µM (inactive)
HOP-62
  GI50: > 100 µM (inactive)
SK-MEL-28
  GI50: > 100 µM (inactive)
OVCAR-4
  GI50: > 100 µM (inactive)
HOP-18
  GI50: > 100 µM (inactive)
SR
  GI50: 28.2 µM (inactive)
Malme-3M
  GI50: > 100 µM (inactive)
SNB-19
  GI50: 61.2 µM (inactive)

## CCOC(=O)C1=C(NC)OCC1=O
A498
  GI50: > 100 µM (inactive)
HCC 2998
  GI50: > 100 µM (inactive)
SK-OV-3
  GI50: > 100 µM (inactive)
DMS-273
  GI50: > 100 µM (inactive)
SW-620
  GI50: > 100 µM (inactive)
M14
  GI50: > 100 µM (inactive)
NCI-H460
  GI50: > 100 µM (inactive)
HCT-116
  GI50: > 100 µM (inactive)
SF-539
  GI50: > 100 µM (inactive)
U-251
  GI50: > 100 µM (inactive)
KM12
  GI50: > 100 µM (inactive)
CCRF-CEM
  GI50: > 100 µM (inactive)
RPMI-8226
  GI50: > 100 µM (inactive)
SK-MEL-2
  GI50: > 100 µM (inactive)
SF-268
  GI50: > 100 µM (inactive)
SNB-78
  GI50: > 100 µM (inactive)
COLO 205
  GI50: > 100 µM (inactive)
SNB-75
  GI50: > 100 µM (inactive)
UACC-62
  GI50: > 100 µM (inactive)
LXFL 529
  GI50: > 100 µM (inactive)
HL-60
  GI50: > 100 µM (inactive)
HCT-15
  GI50: > 100 µM
OVCAR-3
  GI50: > 100 µM (inactive)
A549
  GI50: > 100 µM (inactive)
786-0
  GI50: > 100 µM (inactive)
OVCAR-5
  GI50: > 100 µM (inactive)
OVCAR-8
  GI50: > 100 µM (inactive)
RXF 393
  GI50: > 100 µM (inactive)
NCI-H226
  GI50: > 100 µM (inactive)
EKVX
  GI50: > 100 µM (inactive)
NCI-H522
  GI50: > 100 µM (inactive)
SF-295
  GI50: > 100 µM (inactive)
HOP-92
  GI50: > 100 µM (inactive)
RXF 631
  GI50: > 100 µM (inactive)
TK-10
  GI50: > 100 µM (inactive)
KM-20L2
  GI50: > 100 µM (inactive)
HT-29
  GI50: > 100 µM (inactive)
SN12C
  GI50: > 100 µM (inactive)
SK-MEL-5
  GI50: > 100 µM (inactive)
UACC-257
  GI50: > 100 µM (inactive)
M19-MEL
  GI50: > 100 µM (inactive)
XF498
  GI50: > 100 µM (inactive)
ACHN
  GI50: > 100 µM (inactive)
IGROV-1
  GI50: > 100 µM (inactive)
K562
  GI50: > 100 µM (inactive)
CAKI-1
  GI50: > 100 µM (inactive)
LOX IMVI
  GI50: > 100 µM (inactive)
DMS-114
  GI50: > 100 µM (inactive)
UO-31
  GI50: > 100 µM (inactive)
NCI-H23
  GI50: > 100 µM (inactive)
HOP-62
  GI50: > 100 µM (inactive)
SK-MEL-28
  GI50: > 100 µM (inactive)
OVCAR-4
  GI50: > 100 µM (inactive)
Malme-3M
  GI50: > 100 µM (inactive)
SNB-19
  GI50: > 100 µM (inactive)
